Data: patent publication US20080280868A1, “Pyridine Derivatives and Their Use as Cb2 Receptor Modulators” (priority 2004, published 2008)
Structures can show the parent of a compound that is named as a salt. Where two headings read alike, the source gives them in different places.

Target: T1, human cannabinoid CB2 receptor (Homo sapiens, UniProt P34972)
T1 construct: expressed in transfected cells; host or cells: Saccharomyces cerevisiae strain MMY23 (cassette integrated at the ura3 locus, GPD promoter)
T1 sequence (P34972 whole entry): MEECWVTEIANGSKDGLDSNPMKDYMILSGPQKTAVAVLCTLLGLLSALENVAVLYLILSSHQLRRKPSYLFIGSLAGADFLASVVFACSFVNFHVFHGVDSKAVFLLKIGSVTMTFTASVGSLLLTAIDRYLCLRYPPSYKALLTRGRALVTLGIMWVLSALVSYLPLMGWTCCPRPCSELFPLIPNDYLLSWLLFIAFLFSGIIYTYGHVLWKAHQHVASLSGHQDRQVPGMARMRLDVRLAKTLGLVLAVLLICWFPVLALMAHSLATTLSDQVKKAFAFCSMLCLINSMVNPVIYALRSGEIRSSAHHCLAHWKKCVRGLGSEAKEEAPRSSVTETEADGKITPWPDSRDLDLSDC
Assay: Cannabinoid CB2 receptor agonist activity in yeast cells (FDGlu fluorescence)
Format: cell-based
Conditions: for Emax: read-out: efficacy value (Emax) at the cloned human cannabinoid CB2 receptor
Procedure: The cannabinoid CB2 receptor agonist activity of the compounds of formula (I) was determined in accordance with the following experimental method.
Yeast (Saccharomyces cerevisiae) cells expressing the human cannabinoid CB2 receptor were generated by integration of an expression cassette into the ura3 chromosomal locus of yeast strain MMY23. This cassette consisted of DNA sequence encoding the human CB2 receptor flanked by the yeast GPD promoter to the 5′ end of CB2 and a yeast transcriptional terminator sequence to the 3′ end of CB2. MMY23 expresses a yeast/mammalian chimeric G-protein alpha subunit in which the C-terminal 5 amino acids of Gpal are replaced with the C-terminal 5 amino acids of human Gαi3 (as described in Brown et al. (2000), Yeast 16:11-22).
Agonists were prepared as 10 mM stocks in DMSO. […] Agonist solutions in DMSO (1% final assay volume) were transferred into black, clear bottom, microtitre plates from NUNC (96- or 384-well). Cells were suspended at a density of 0.2 OD600/ml in SC media lacking histidine, uracil, tryptophan, adenine and leucine and supplemented with 10 mM 3-aminotriazole, 0.1M sodium phosphate pH 7.0, and […] fluorescein di-β-D-glucopyranoside (FDGlu). […] After incubation at 30° C. for 24 hours, fluorescence resulting from degradation of FDGlu to fluorescein due to exoglucanase, an endogenous yeast enzyme produced during agonist-stimulated cell growth, was determined using a Spectrofluor microtitre plate reader (Tecan; excitation wavelength: 485 nm; emission wavelength: 535 nm). Fluorescence was plotted against compound concentration and iteratively curve fitted using a four parameter fit to generate a concentration effect value. Efficacy (Emax) was calculated from the equation
Equieffective molar ratio (EMR) values were calculated from the equation

[1] = yeast (Saccharomyces cerevisiae) expressing human CB2, agonist, 30° C. for 24 hours, read-out: EC50 at the cloned human cannabinoid CB2 receptor
[2] = Emax relative to HU210, yeast expressing human CB2

EC50 [1] [nM] | Emax [2] [%] | SMILES | EC50 [nM] | Emax [%]
– | – | CC(C)c1cc(Nc2cccc(C(F)(F)F)c2)ncc1CNCC1CC1 [Example 30, {5-[(Cyclopropylmethyl-amino)-methyl]-4-isopropyl-pyridin-2-yl}-(3-trifluoromethyl-phenyl)-amine,compound with formic acid (1:1)] | 300 to 1000 | > 50
< 300 | > 50 | Fc1ccc(Nc2cc(C3CC3)c(CNCC3CCCC3)cn2)cc1Cl [Example 44, (3-Chloro-4-fluoro-phenyl)-{5-[(cyclopentylmethyl-amino)-methyl]-4-cyclopropyl-pyridin-2-yl}-amine, compound with formicacid (1:1.4)] | – | –
– | – | Fc1ccc(CNCc2cnc(Nc3cccc(Cl)c3)cc2C2CC2)cc1 [Example 52, (3-Chloro-phenyl)-{4-cyclopropyl-5-[(4-fluorobenzylamino)methyl]-pyridin-2-yl}-amine dihydrochloride] | < 300 | > 50
– | – | CC(C)c1cc(Nc2ccc(F)cc2Cl)ncc1CNCC1CCC1 [Example 24, (2-Chloro-4-fluoro-phenyl)-{5-[(cyclobutylmethyl-amino)-methyl]-4-isopropyl-pyridin-2-yl}-amine,compound with formic acid (1:1.75)] | 300 to 1000 | > 50
< 300 | > 50 | CC(C)CNCc1cnc(Nc2cccc(Br)c2)cc1C(C)C [Example 48, (3-Bromo-phenyl)-[5-(isobutylamino-methyl)-4-isopropyl-pyridin-2-yl]-amine, compound withformic acid (1:33)] | – | –
– | – | CC(C)c1cc(Nc2ccc(Cl)cc2Cl)ncc1CNCC1CCC1 [Example 16, {5-[(Cyclobutylmethyl-amino)-methyl]-4-isopropyl-pyridin-2-yl}-(2,4-dichloro-phenyl)-amine,compound with formic acid (1:1)] | < 300 | > 50
< 300 | – | CC(C)c1cc(Nc2cccc(Cl)c2)ncc1CN1CCC1 [Example 59, (5-Azetidin-1-ylmethyl-4-isopropyl-pyridin-2-yl)-(3-chloro-phenyl)-amine.dihydrochloride] | – | –
– | – | CC(C)CNCc1cnc(Nc2ccc(Cl)c(Cl)c2)cc1C(C)C [Example 47, (3,4-Dichloro-phenyl)-[5-(isobutylamino-methyl)-4-isopropyl-pyridin-2-yl]-amine, compound withformic acid (1:1)] | < 300 | > 50
– | – | CC(C)CNCc1cnc(Nc2cccc(Cl)c2)cc1C1CC1 [Example 5, (3-Chlorophenyl)-[4-cyclopropyl-5-(isobutylamino-methyl)-pyridin-2-yl]-amineacetate] | < 300 | > 50
300 to 1000 | – | Fc1ccc(CNCc2cnc(Nc3ccc(Cl)cc3Cl)cc2C(F)(F)F)cc1 [Example 54, (2,4-Dichlorophenyl)-{5-[(4-fluoro-benzylamino)-methyl]-4-trifluoromethyl-pyridin-2-yl}-amine] | – | –
– | – | CC(C)c1cc(Nc2cccc(Cl)c2)ncc1CN1CCSCC1 [Example 60, (3-Chloro-phenyl)-(4-isopropyl-5-thiomorpholin-4-ylmethyl-pyridin-2-yl)-amine. dihydrochloride] | < 300 | > 50
– | – | CC(C)c1cc(Nc2cccc(C(F)(F)F)c2F)ncc1C(C)NCC1CCC1 (stereo not shown) [Example 56, {[1-Cyclobutylmethyl-amino)ethyl]-4-isopropyl-pyridin-2-yl}-(2-fluoro-3-trifluoromethyl-phenyl)-amine dihydrochloride] | < 300 | > 50
300 to 1000 | > 50 | CC(C)c1cc(Nc2ccc(Cl)cc2F)ncc1CNCC1CCC1 [Example 25, (4-Chloro-2-fluoro-phenyl)-{5-[(cyclobutylmethyl-amino)-methyl]-4-isopropyl-pyridin-2-yl}-amine,compound with formic acid (1:1.67)] | – | –

SMILES | EC50 [1] [nM] | Emax [2] [%] | EC50 [nM] | Emax [%]
CC(C)c1cc(Nc2ccc(OC(F)(F)F)cc2Br)ncc1CNCC1CCC1 [Example 26, (2-Bromo-4-trifluoromethoxy-phenyl)-{5-[(cyclobutylmethyl-amino)-methyl]-4-isopropyl-pyridin-2-yl}-amine, compound with formicacid (1:1)] | 300 to 1000 | – | – | > 50
CC(C)c1cc(Nc2ccc(F)c(Cl)c2)ncc1CNCC1CC1 [Example 34, (3-Chloro-4-fluoro-phenyl)-{5-[(cyclopropylmethyl-amino)-methyl]-4-isopropyl-pyridin-2-yl}-amine, compound with formic acid(1:1)] | 300 to 1000 | – | – | > 50
